# Measured values: patent publication US20140107100A1, “Benzoxazepines as Inhibitors of PI3K/mTOR and Methods of Their Use and Manufacture” (EXELIXIS, INC., priority 2010, published 2014)
# How the values were obtained:
# mTOR/GbL/Raptor (mTORC1) = mTOR/GbL/Raptor (mTORC1) (Homo sapiens, UniProt P42345); assay: mTOR/GbL/Raptor (mTORC1) ELISA assay, phosphorylation of 4E-BP1; type: biochemical; conditions: 0.2 nM mTORC1, 40 uM ATP, 50 nM NHis-tagged 4E-BP1, 120 minutes; read-out: IC50 in this assay (mTORC1 ELISA)
# Outline: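 Phospho-4E-BP1 was quantified by luminescent ELISA (anti-phospho-4E-BP1 IgG, HRP-tagged secondary) after capture of the His-tagged substrate on Ni-chelate plates.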
# PI3Kα = PI3Kα (Homo sapiens, UniProt P42336); assay: PI3K biochemical assay, ATP consumption by luciferase-luciferin chemiluminescence; conditions: 3 nM enzyme, 10 μM PIP2, approximately 2 h; read-out: IC50 in the PI3K-alpha assay
# Protocol: P13Kα activity was measured as the percent of ATP consumed following the kinase reaction using luciferase-luciferin-coupled chemiluminescence. Reactions were conducted in 384-well white, medium binding microliter plates (Greiner). Kinase reactions were initiated by combining test compounds. ATP, substrate (PIP2), and kinase in a 20 μL volume in a buffer solution. The standard P13Kalpha assay buffer was composed 50 mM Tris, pH 7.5, 1 mM EGTA, 10 mM MgCl2, 1 mM DTT and 0.03% CHAPS. The standard assay concentrations for enzyme, ATP, and substrate were 3 nM, IpM, and 10 μM, respectively. The reaction mixture was incubated at ambient temperature for approximately 2 h. Following the kinase reaction, a 10 μL aliquot of luciferase-luciferin mix (Promega Kinase-Glo) was added and the chemiluminescence signal measured using a Victor2 or EnVision (Perkin Elmer). Total ATP consumption was limited to 40-60% and IC50 values of control compounds correlate well with literature references. Substituting P13Kα with P13Kβ, […], or PI3Kδ, the inhibitory activity of the compounds for the other isoforms of P13-K were measured. For the P13Kβ and P13Kβ assays, enzyme concentrations were 10 nM and 4 nM. respectively. For the P13γ assay, enzyme concentration was 40 nM, the incubation time was 1 h, and the concentration of MgCl2 in the assay buffer was 5 mM.
# PI3Kα, sequence (P42336 whole entry): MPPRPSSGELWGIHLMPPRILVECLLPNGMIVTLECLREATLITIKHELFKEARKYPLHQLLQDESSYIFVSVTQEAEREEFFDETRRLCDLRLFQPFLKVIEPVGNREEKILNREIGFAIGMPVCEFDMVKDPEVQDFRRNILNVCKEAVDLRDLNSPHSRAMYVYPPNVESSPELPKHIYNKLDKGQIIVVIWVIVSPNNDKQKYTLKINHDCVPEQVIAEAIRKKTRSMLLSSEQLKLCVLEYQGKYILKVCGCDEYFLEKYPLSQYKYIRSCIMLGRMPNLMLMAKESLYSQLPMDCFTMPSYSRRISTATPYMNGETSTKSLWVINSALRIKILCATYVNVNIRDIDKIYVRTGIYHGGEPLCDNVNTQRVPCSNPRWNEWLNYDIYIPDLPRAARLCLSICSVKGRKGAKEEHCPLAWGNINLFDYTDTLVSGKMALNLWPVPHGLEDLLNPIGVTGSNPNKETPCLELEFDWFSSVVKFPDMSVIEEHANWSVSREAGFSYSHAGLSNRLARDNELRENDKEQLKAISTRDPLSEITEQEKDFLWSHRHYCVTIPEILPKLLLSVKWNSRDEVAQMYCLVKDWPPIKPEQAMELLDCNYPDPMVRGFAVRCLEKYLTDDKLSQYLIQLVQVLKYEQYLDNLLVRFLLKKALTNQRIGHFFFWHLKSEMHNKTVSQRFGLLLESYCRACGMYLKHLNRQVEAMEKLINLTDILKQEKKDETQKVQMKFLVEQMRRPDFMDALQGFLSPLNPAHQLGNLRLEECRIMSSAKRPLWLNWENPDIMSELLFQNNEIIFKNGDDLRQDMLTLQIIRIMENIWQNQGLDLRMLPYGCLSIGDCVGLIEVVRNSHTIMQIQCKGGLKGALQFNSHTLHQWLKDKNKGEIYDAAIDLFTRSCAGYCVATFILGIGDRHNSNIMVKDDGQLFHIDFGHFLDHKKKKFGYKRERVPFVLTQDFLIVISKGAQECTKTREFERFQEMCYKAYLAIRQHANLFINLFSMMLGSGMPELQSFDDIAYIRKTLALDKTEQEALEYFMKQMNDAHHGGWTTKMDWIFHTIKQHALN
# PI3Kα, sequence (P27986 whole entry partner): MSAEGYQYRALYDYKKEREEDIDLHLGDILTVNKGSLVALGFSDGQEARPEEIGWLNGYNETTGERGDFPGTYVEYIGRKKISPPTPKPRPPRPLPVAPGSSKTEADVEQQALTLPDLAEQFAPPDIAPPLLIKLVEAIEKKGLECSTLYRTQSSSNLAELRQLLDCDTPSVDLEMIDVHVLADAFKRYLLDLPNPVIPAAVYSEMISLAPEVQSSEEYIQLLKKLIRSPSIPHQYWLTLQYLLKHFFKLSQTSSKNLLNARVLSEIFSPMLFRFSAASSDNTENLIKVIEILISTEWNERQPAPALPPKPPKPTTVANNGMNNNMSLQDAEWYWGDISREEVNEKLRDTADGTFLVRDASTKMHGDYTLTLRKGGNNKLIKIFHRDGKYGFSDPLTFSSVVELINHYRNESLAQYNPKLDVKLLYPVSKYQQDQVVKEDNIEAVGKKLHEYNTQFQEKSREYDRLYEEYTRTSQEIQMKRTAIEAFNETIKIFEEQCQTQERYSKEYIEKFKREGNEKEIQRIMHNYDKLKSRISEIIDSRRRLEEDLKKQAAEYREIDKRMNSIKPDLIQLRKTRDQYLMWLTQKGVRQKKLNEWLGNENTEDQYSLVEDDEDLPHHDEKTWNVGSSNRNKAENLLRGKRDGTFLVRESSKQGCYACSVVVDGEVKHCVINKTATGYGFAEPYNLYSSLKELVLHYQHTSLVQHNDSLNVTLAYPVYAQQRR
Structure (SMILES),IC50 (mTOR/GbL/Raptor (mTORC1)),IC50 (PI3Kα)
"Cc1cc(-c2cccc(N)c2)cc2c1OCCN(c1nc(N)nc(C)c1C(C)C)C2 [Compound 69, 4-[7-(3-aminophenyl)-9-methyl-2,3-dihydro-1,4-benzoxazepin-4(5H)-yl]-6-methyl-5-(1-methylethyl)pyrimidin-2-amine]",100 to 500 nM,500 to 2500 nM
"Cc1cc(-c2cn(C)nc2C)cc2c1OCCN(c1nc(N)nc(C)c1C(C)C)C2 [Compound 109, 4-[7-(1,3-dimethyl-1H-pyrazol-4-yl)-9-methyl-2,3-dihydro-1,4-benzoxazepin-4(5H)-yl]-6-methyl-5-(1-methylethyl)pyrimidin-2-amine]",100 to 500 nM,500 to 2500 nM
"Cc1cc(-c2cnn(C)c2C)cc2c1OCCN(c1nc(N)nc(C)c1C(C)C)C2 [Compound 110, 4-[7-(1,5-dimethyl-1H-pyrazol-4-yl)-9-methyl-2,3-dihydro-1,4-benzoxazepin-4(5H)-yl]-6-methyl-5-(1-methylethyl)pyrimidin-2-amine]",100 to 500 nM,500 to 2500 nM

# More lines, now with the values ahead:
IC50 (mTOR/GbL/Raptor (mTORC1)),IC50 (PI3Kα),Structure (SMILES)
100 to 500 nM,500 to 2500 nM,"CCNC(=O)c1sc(N2CCOc3c(C)cc(-c4cnc(Cl)c(NS(C)(=O)=O)c4)cc3C2)nc1C(C)C [Compound 33, 2-[7-{6-chloro-5-[(methylsulfonyl)amino]pyridin-3-yl}-9-methyl-2,3-dihydro-1,4-benzoxazepin-4(5H)-yl]-N-ethyl-4-(1-methylethyl)-1,3-thiazole-5-carboxamide]"
100 to 500 nM,500 to 2500 nM,"COC(=O)c1ccc(-c2cc(C)c3c(c2)CN(c2nc(N)nc(C)c2C(C)C)CCO3)cc1OC [Compound 68, methyl 4-{4-[2-amino-6-methyl-5-(1-methylethyl)pyrimidin-4-yl]-9-methyl-2,3,4,5-tetrahydro-1,4-benzoxazepin-7-yl}-2-(methyloxy)benzoate]"
≤ 100 nM,≤ 100 nM,"C=Cc1cnc(N)nc1N1CCOc2c(C)cc(-c3cnc4sc(N)nc4c3)cc2C1 [Compound 89, 6-[4-(2-amino-5-ethenylpyrimidin-4-yl)-9-methyl-2,3,4,5-tetrahydro-1,4-benzoxazepin-7-yl][1,3]thiazolo[5,4-b]pyridin-2-amine]"
≤ 100 nM,≤ 100 nM,"[2H]C1([2H])Oc2c(C)cc(-c3cnc4sc(N)nc4c3)cc2CN(c2nc(N)nc(C)c2C(C)C)C1([2H])[2H] [Compound 122, 6-{4-[2-amino-6-methyl-5-(1-methylethyl)pyrimidin-4-yl]-2,3,4,5-tetrahydro-1,4-benzoxazepin-7-yl}[1,3]thiazolo[5,4-b]pyridin-2-amine-d_4_]"
